Measurements published in US20090239841A1, “Diaryl Ureas as CB1 Antagonists” (priority 2004, published 2009).

Target: T1, hCB1 (Homo sapiens, UniProt P21554)
T1 construct: made in house; host or cells: Sf9 insect cells (baculovirus), P2 membranes
Experiment: Agonist-induced GTP binding (GTPγ35S) assay at CB1, Example 8
Assay type: biochemical
Conditions: IC50 at CB1, determined as described in Example 8; read-out: IC50
Method in brief: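 Antagonism read as inhibition of 1 nM CP55,940-stimulated GTPγ35S ([…]) binding, compounds at 10^−10 to 10^−5 M. Baculovirus-infected Sf9 membranes bearing hCB1 plus G-protein subunits, 60 min room-temperature incubation with 5 μM GDP. Filtration and scintillation counting; data as percent over basal.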

T1 sequence (P21554 whole entry): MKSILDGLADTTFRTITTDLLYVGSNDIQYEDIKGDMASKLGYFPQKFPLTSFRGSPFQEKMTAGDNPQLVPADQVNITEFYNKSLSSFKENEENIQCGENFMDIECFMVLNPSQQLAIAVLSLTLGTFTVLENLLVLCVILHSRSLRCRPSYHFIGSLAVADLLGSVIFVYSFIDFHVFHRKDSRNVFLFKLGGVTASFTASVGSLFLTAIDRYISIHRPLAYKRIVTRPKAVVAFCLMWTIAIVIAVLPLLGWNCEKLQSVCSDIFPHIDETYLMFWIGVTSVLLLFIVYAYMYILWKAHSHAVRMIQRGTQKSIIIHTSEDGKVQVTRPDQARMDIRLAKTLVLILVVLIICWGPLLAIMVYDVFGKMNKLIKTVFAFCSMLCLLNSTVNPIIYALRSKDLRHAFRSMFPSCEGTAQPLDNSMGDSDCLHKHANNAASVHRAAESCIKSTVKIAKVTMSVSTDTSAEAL

IC50, < 2000 nM:
COc1cccc(NC(=O)Nc2ccc(C)c(F)c2)c1 [Compound 614, 1-(3-fluoro-4-methylphenyl)-3-(3-methoxyphenyl)urea]
CC(C)Oc1ccc(NC(=O)Nc2cc(F)cc(F)c2)cc1 [Compound 709, 1-(3,5-difluorophenyl)-3-(4-isopropoxyphenyl)urea]
CCCc1ccc(NC(=O)Nc2cccc(F)c2)cc1 [Compound 327, 1-(3-fluorophenyl)-3-(4-propylphenyl)urea]
CCc1ccc(NC(=O)Nc2ccccc2[N+](=O)[O-])cc1 [Compound 515, 1-(4-ethylphenyl)-3-(2-nitrophenyl)urea]
Cc1cc(C)cc(NC(=O)Nc2cccc(OC(F)F)c2)c1 [Compound 710, 1-[3-(difluoromethoxy)phenyl]-3-(3,5-dimethylphenyl)urea]
O=C(Nc1ccccc1)Nc1ccc(N2CCCCC2)cc1 [Compound 321, 1-phenyl-3-(4-piperidin-1-ylphenyl)urea]
CCc1cccc(NC(=O)Nc2ccc(CC#N)cc2)c1 [Compound 482, 1-[4-(cyanomethyl)phenyl]-3-(3-ethylphenyl)urea]
CCCCc1ccc(NC(=O)Nc2ccc(C)cc2)cc1 [Compound 295, N-(4-butylphenyl)-N′-(4-methylphenyl)urea]
CN1CCN(S(=O)(=O)c2ccc(NC(=O)Nc3cccc(OC(F)F)c3)cc2)CC1 [Compound 790, N-[3-(difluoromethoxy)phenyl]-N′-{4-[(4-methyl-1-piperazinyl)sulfonyl]phenyl}urea]
CCn1nnnc1-c1ccc(NC(=O)Nc2cccc(OC(F)F)c2)cc1 [Compound 791, N-[3-(difluoromethoxy)phenyl]-N′-[4-(1-ethyl-1H-tetrazol-5-yl)phenyl]urea]
CCC(=O)c1ccc(NC(=O)Nc2cccc(C#N)c2)cc1 [Compound 509, 1-(3-cyanophenyl)-3-(4-propionylphenyl)urea]
CCCc1ccc(NC(=O)Nc2ccc(C(C)=O)cc2)cc1 [Compound 352, 1-(4-acetylphenyl)-3-(4-propylphenyl)urea]
CCOC(=O)c1ccc(NC(=O)Nc2cccc(COC)c2)cc1 [Compound 666, ethyl 4-[({[3-(methoxymethyl)phenyl]amino}carbonyl)amino]benzoate]
CCCCc1ccc(NC(=O)Nc2ccccc2)cc1 [Compound 294, N-(4-butylphenyl)-N′-phenylurea]
CC(=O)c1ccc(NC(=O)Nc2cccc(F)c2)cc1 [Compound 339, 1-(4-acetylphenyl)-3-(3-fluorophenyl)urea]
N#CCc1ccc(NC(=O)Nc2cccc(C#N)c2)cc1 [Compound 503, 1-[4-(cyanomethyl)phenyl]-3-(3-cyanophenyl)urea]
Cc1ccc(NC(=O)Nc2ccc(CC#N)cc2)cc1F [Compound 727, 1-[4-(cyanomethyl)phenyl]-3-(3-fluoro-4-methylphenyl)urea]
COC(=O)c1cccc(NC(=O)Nc2ccc(Cl)cc2)c1 [Compound 647, methyl 3-({[(4-chlorophenyl)amino]carbonyl}amino)benzoate]
COc1ccc(NC(=O)Nc2cccc(OC(C)C)c2)cc1 [Compound 549, 1-(3-isopropoxyphenyl)-3-(4-methoxyphenyl)urea]
O=C(Nc1cccc(OC(F)F)c1)Nc1ccccc1OC(F)(F)F [Compound 541, 1-[3-(difluoromethoxy)phenyl]-3-[2-(trifluoromethoxy)phenyl]urea]
CCc1ccc(NC(=O)Nc2cccc(COC)c2)cc1 [Compound 391, 1-(4-ethylphenyl)-3-[3-(methoxymethyl)phenyl]urea]
COCc1ccc(NC(=O)Nc2cc(F)cc(F)c2)cc1 [Compound 705, 1-(3,5-difluorophenyl)-3-[4-(methoxymethyl)phenyl]urea]
CCCOc1ccc(NC(=O)Nc2ccc(F)cc2)cc1 [Compound 362, 1-(4-fluorophenyl)-3-(4-propoxyphenyl)urea]
CC(C)Oc1ccc(NC(=O)Nc2ccc(C#N)cc2)cc1 [Compound 421, 1-(4-cyanophenyl)-3-(4-isopropoxyphenyl)urea]
CCOC(=O)c1ccc(NC(=O)Nc2ccc(Cl)nc2)cc1 [Compound 779, ethyl 4-({[(6-chloropyridin-3-yl)amino]carbonyl}amino)benzoate]
Cc1ccc(NC(=O)Nc2ccc(CC#N)cc2)cc1C [Compound 726, 1-[4-(cyanomethyl)phenyl]-3-(3,4-dimethylphenyl)urea]
Cc1cc(NC(=O)Nc2ccc(OC(F)F)cc2)ccc1Cl [Compound 612, 1-(4-chloro-3-methylphenyl)-3-[4-(difluoromethoxy)phenyl]urea]
CC(C)c1ccc(NC(=O)Nc2ccc(Cl)nc2)cc1 [Compound 630, 1-(6-chloropyridin-3-yl)-3-(4-isopropylphenyl)urea]
CC(C)Oc1cccc(NC(=O)Nc2cccc(C#N)c2)c1 [Compound 418, 1-(3-cyanophenyl)-3-(3-isopropoxyphenyl)urea]
CCOc1ccc(NC(=O)Nc2cccc(C)c2)cc1 [Compound 302, 1-(4-ethoxyphenyl)-3-(3-methylphenyl)urea]
COC(=O)c1ccc(NC(=O)Nc2ccc(OCC#N)cc2)cc1 [Compound 717, methyl 4-[({[4-(cyanomethoxy)phenyl]amino}carbonyl)amino] benzoate]
CCc1ccc(NC(=O)Nc2cc(OC)ncn2)cc1 [Compound 642, 1-(4-ethylphenyl)-3-(6-methoxypyrimidin-4-yl)urea]
Cc1ccc(NC(=O)Nc2ccc(-n3cnc(Cl)c3Cl)cc2)cc1 [Compound 320, 1-[4-(4,5-dichloro-1H-imidazol-1-yl)phenyl]-3-(4-methylphenyl)urea]
CC(C)Oc1cccc(NC(=O)Nc2ccc(F)cc2)c1 [Compound 364, 1-(4-fluorophenyl)-3-(3-isopropoxyphenyl)urea]
CCOC(=O)c1cccc(NC(=O)Nc2ccc(Cl)cc2)c1 [Compound 648, ethyl 3-({[(4-chlorophenyl)amino]carbonyl}amino)benzoate]
CCc1ccc(NC(=O)Nc2ccc(F)c(F)c2)cc1 [Compound 441, 1-(3,4-difluorophenyl)-3-(4-ethylphenyl)urea]
CCOC(=O)c1ccc(NC(=O)Nc2ccc(C)c(F)c2)cc1 [Compound 737, ethyl 4-({[(3-fluoro-4-methylphenyl)amino]carbonyl}amino)benzoate]
Cc1cccc(NC(=O)Nc2ccc(OC(C)C)cc2)c1 [Compound 365, 1-(4-isopropoxyphenyl)-3-(3-methylphenyl)urea]
Cc1ccc(NC(=O)Nc2ccc(C)c(F)c2)cc1 [Compound 312, 1-(3-fluoro-4-methylphenyl)-3-(4-methylphenyl)urea]

Same assay, conditions: Table I; IC50 at CB1, GTP binding with 1 nM CP55,940; read-out: IC50

IC50, < 2000 nM:
Cc1ccc(NC(=O)Nc2ccc(OC(F)F)cc2)cc1 [Compound 41, N-[4-(difluoromethoxy)phenyl]-N′-(4-methylphenyl)urea]
CCCc1ccc(NC(=O)Nc2ccc(CC)cc2)cc1 [Compound 20, N-(4-ethylphenyl)-N′-(4-propylphenyl)urea]

Same assay, conditions: Table II; IC50 at CB1, GTP binding with 1 nM CP55,940; read-out: IC50

IC50, < 2000 nM:
O=C(Nc1ccccc1)Nc1ccc2c(c1)CCC2 [Compound 161, N-(2,3-dihydro-1H-inden-5-yl)-N′-phenylurea]
O=C(Nc1ccc(OC(F)F)cc1)Nc1cc(C2CC2)n[nH]1 [Compound 106, N-(3-cyclopropyl-1H-pyrazol-5-yl)-N′-[4-(difluoromethoxy)phenyl]urea]
CCCc1ccc(NC(=O)Nc2ccc(C(C)=O)cc2)cc1 [Compound 200, N-(4-acetylphenyl)-N′-(4-propylphenyl)urea]
N#Cc1ccc(NC(=O)Nc2ccc(OC(F)F)cc2)cc1 [Compound 287, N-(4-cyanophenyl)-N′-[4-(difluoromethoxy)phenyl]urea]
O=C(Nc1ccc(OC(F)F)cc1)Nc1cccc2cccc(Cl)c12 [Compound 141, N-(8-chloro-1-naphthyl)-N′-[4-(difluoromethoxy)phenyl]urea]
O=C(Nc1ccc(OC(F)F)cc1)Nc1cccc(OC(F)F)c1 [Compound 103, N-[3-(difluoromethoxy)phenyl]-N′-[4-(difluoromethoxy)phenyl]urea]
Cc1ccc(NC(=O)Nc2cc3ccccc3c(Br)n2)cc1 [Compound 170, N-(1-bromoisoquinolin-3-yl)-N′-(4-methylphenyl)urea]
CC(C)Oc1cccc(NC(=O)Nc2cccc(Cl)c2)c1 [Compound 247, N-(3-chlorophenyl)-N′-(3-isopropoxyphenyl)urea]
O=C(Nc1ccc(OC(F)F)cc1)Nc1ccc(C(F)(F)F)cc1 [Compound 77, N-[4-(difluoromethoxy)phenyl]-N′-[4-(trifluoromethyl)phenyl]urea]
COc1nc(-c2cccc(NC(=O)Nc3ccc(OC(F)F)cc3)c2)ncc1C(F)(F)F [Compound 118, N-[4-(difluoromethoxy)phenyl]-N′-{3-[4-methoxy-5-(trifluoromethyl)pyrimidin-2-yl]phenyl}urea]
CCCc1ccc(NC(=O)Nc2ccc(F)cc2)cc1 [Compound 178, N-(4-fluorophenyl)-N′-(4-propylphenyl)urea]
CCc1ccc(NC(=O)Nc2ccc(F)cc2)cc1 [Compound 175, N-(4-ethylphenyl)-N′-(4-fluorophenyl)urea]
